Test results: patent EP0908457B1, “3-(1,2-benzisothiazol- and isoxazol-5-Y1)-2,4(1H,3H)-pyrimidinedione or thione and 3-(1,2-benzisothiazol- and isoxazol-5-y1)-4(3H)-pyrimidinone or thione herbicidal agents” (BASF AKTIENGESELLSCHAFT, priority 1997, dated 1999)

Legend:
[1] = test system: Sagittaria pygmaea, L.; test: Preemergence weed control under flooded paddy conditions, SAGPY (Arrowhead (Pygmaea)); type: in vivo; conditions: flooded paddy; for herbicidal effect rating, SAGPY / SAGPY herbicidal effect rating: rated three to four weeks after treatment; for SAGPY: herbicidal effect rating 0-9, three to four weeks after treatment; on herbicidal effect rating, SAGPY: meaning of each grade not given here
[2] = test system: Monochoria vaginalis, Presl.; test: Preemergence weed control under flooded paddy conditions, MOOVA (Monochoria); type: in vivo; conditions: flooded paddy; for herbicidal effect rating, MOOVA / MOOVA herbicidal effect rating: rated three to four weeks after treatment; for MOOVA: herbicidal effect rating 0-9, three to four weeks after treatment; on herbicidal effect rating, MOOVA: meaning of each grade not given here
[3] = test system: Oryza sativa, (L.) Tebonnet; test: Rice tolerance to post-transplant applications under flooded paddy conditions (Example 187), ORYSAT (Rice, Tebonnet); conditions: for herbicidal effect rating ORYSAT / ORYSAT herbicidal effect rating / herbicidal effect rating, ORYSAT (rice tolerance): rated three to four weeks after treatment; for ORYSAT: herbicidal effect rating 0-9, three to four weeks after treatment
[4] = test system: Cyperus serotinus, Rottb.; test: Preemergence weed control under flooded paddy conditions, CYPSE (Flatsedge); type: in vivo; conditions: for herbicidal effect rating, CYPSE / CYPSE herbicidal effect rating: rated three to four weeks after treatment; for CYPSE: herbicidal effect rating 0-9, three to four weeks after treatment; on herbicidal effect rating, CYPSE: meaning of each grade not given here
[5] = test system: Cyperus iria; test: Preemergence weed control under flooded paddy conditions, CYPIR (Rice Flatsedge); type: in vivo; conditions: flooded paddy; for herbicidal effect rating, CYPIR / CYPIR herbicidal effect rating: rated three to four weeks after treatment; for CYPIR: herbicidal effect rating 0-9, three to four weeks after treatment; on herbicidal effect rating, CYPIR: meaning of each grade not given here
[6] = test system: Echinochloa oryzoides (Ard.) Fritsch.; test: Preemergence weed control under flooded paddy conditions, ECHORC (Watergrass (Calif.)); type: in vivo; conditions: flooded paddy; for herbicidal effect rating, ECHORC / ECHORC herbicidal effect rating: rated three to four weeks after treatment; for ECHORC: herbicidal effect rating 0-9, three to four weeks after treatment; on herbicidal effect rating, ECHORC: meaning of each grade not given here
[7] = Rate 0.0320 kg/ha, preemergence weeds
[8] = Rate 0.0620 kg/ha, preemergence weeds
[9] = Rate 0.1250 kg/ha, preemergence weeds
[10] = Rate 0.2500 kg/ha, preemergence weeds
[11] = Rate 0.0313 kg/ha, preemergence
[12] = Rate 0.0625 kg/ha, preemergence
[13] = Rate 0.1250 kg/ha, preemergence
[14] = Rate 0.2500 kg/ha, preemergence
[15] = 0.0320 kg/ha, preemergence weeds
[16] = 0.0620 kg/ha, preemergence weeds
[17] = 0.1250 kg/ha, preemergence weeds
[18] = 0.2500 kg/ha, preemergence weeds
[19] = 0.0313 kg/ha, preemergence weeds
[20] = 0.0625 kg/ha, preemergence weeds

## Cn1c(C(F)(F)F)cc(=O)n(-c2ccc3snc(C(=O)Oc4ccccc4)c3c2)c1=O [Example 319, 1,2-Benzisothiazole-3-carboxylic acid, 5-[3,6-dihydro-3-methyl-2,6-dioxo-4-(trifluoromethyl)-1(2H)-pyrimidinyl]-, phenyl ester]
[1]; [7]
  herbicidal effect rating, SAGPY: 6.0
[1]; [8]
  herbicidal effect rating, SAGPY: 6.0
[1]; [9]
  herbicidal effect rating, SAGPY: 9.0
[1]; [10]
  herbicidal effect rating, SAGPY: 9.0
[2]; [7]
  herbicidal effect rating, MOOVA: 9.0
[2]; [8]
  herbicidal effect rating, MOOVA: 9.0
[2]; [9]
  herbicidal effect rating, MOOVA: 9.0
[2]; [10]
  herbicidal effect rating, MOOVA: 9.0
[3]; Rate 0.0320 kg/ha
  herbicidal effect rating ORYSAT: 5.0
[3]; Rate 0.0620 kg/ha
  herbicidal effect rating ORYSAT: 6.0
[3]; Rate 0.1250 kg/ha
  herbicidal effect rating ORYSAT: 6.0
[3]; Rate 0.2500 kg/ha
  herbicidal effect rating ORYSAT: 7.0
[4]; [7]
  herbicidal effect rating, CYPSE: 4.0
[4]; [8]
  herbicidal effect rating, CYPSE: 6.0
[4]; [9]
  herbicidal effect rating, CYPSE: 6.0
[4]; [10]
  herbicidal effect rating, CYPSE: 6.0
[5]; [7]
  herbicidal effect rating, CYPIR: 3.0
[5]; [8]
  herbicidal effect rating, CYPIR: 9.0
[5]; [9]
  herbicidal effect rating, CYPIR: 9.0
[5]; [10]
  herbicidal effect rating, CYPIR: 9.0
[6]; [7]
  herbicidal effect rating, ECHORC: 3.0
[6]; [8]
  herbicidal effect rating, ECHORC: 7.0
[6]; [9]
  herbicidal effect rating, ECHORC: 9.0
[6]; [10]
  herbicidal effect rating, ECHORC: 9.0

## CC(C)=CCOCc1nsc2ccc(-n3c(=O)cc(C(F)(F)F)n(C)c3=O)cc12 [Example 210, 1-Methyl-3-{3-[(3-methyl-2-butenyloxy)methyl]-1,2-benzisothiazol-5-yl}-6-(trifluoromethyl)-2,4(1H,3H)-pyrimidinedione]
[1]; [11]
  SAGPY herbicidal effect rating: 0.0
[1]; [12]
  SAGPY herbicidal effect rating: 0.0
[1]; [13]
  SAGPY herbicidal effect rating: 0.0
[1]; [14]
  SAGPY herbicidal effect rating: 0.0
[2]; [11]
  MOOVA herbicidal effect rating: 9.0
[2]; [12]
  MOOVA herbicidal effect rating: 9.0
[2]; [13]
  MOOVA herbicidal effect rating: 9.0
[2]; [14]
  MOOVA herbicidal effect rating: 9.0
[3]; Rate 0.0313 kg/ha
  ORYSAT herbicidal effect rating: 3.0
[3]; Rate 0.0625 kg/ha
  ORYSAT herbicidal effect rating: 4.0
[3]; Rate 0.1250 kg/ha
  ORYSAT herbicidal effect rating: 6.0
[3]; Rate 0.2500 kg/ha
  ORYSAT herbicidal effect rating: 7.0
[4]; [11]
  CYPSE herbicidal effect rating: 0.0
[4]; [12]
  CYPSE herbicidal effect rating: 0.0
[4]; [13]
  CYPSE herbicidal effect rating: 0.0
[4]; [14]
  CYPSE herbicidal effect rating: 0.0
[5]; [11]
  CYPIR herbicidal effect rating: 2.0
[5]; [12]
  CYPIR herbicidal effect rating: 7.0
[5]; [14]
  CYPIR herbicidal effect rating: 7.0
[6]; [11]
  ECHORC herbicidal effect rating: 9.0
[6]; [12]
  ECHORC herbicidal effect rating: 9.0
[6]; [13]
  ECHORC herbicidal effect rating: 9.0
[6]; [14]
  ECHORC herbicidal effect rating: 9.0

## COc1ccc(C)cc1-c1nsc2ccc(-n3c(=O)cc(C)n(C)c3=O)cc12 [Example 24, 3-[3-(6-Methoxy-m-tolyl)-1,2-benzisothiazol-5-yl]-1,6-dimethyl-2,4(1H,3H)-pyrimidinedione]
[1]; 0.0313 kg/ha, preemergence
  herbicidal effect rating, SAGPY: 0.0
[1]; 0.0625 kg/ha, preemergence
  herbicidal effect rating, SAGPY: 0.0
[1]; 0.1250 kg/ha, preemergence
  herbicidal effect rating, SAGPY: 0.0
[1]; 0.2500 kg/ha, preemergence
  herbicidal effect rating, SAGPY: 0.0
[2]; 0.0313 kg/ha, preemergence
  herbicidal effect rating, MOOVA: 4.0
[2]; 0.0625 kg/ha, preemergence
  herbicidal effect rating, MOOVA: 8.0
[2]; 0.1250 kg/ha, preemergence
  herbicidal effect rating, MOOVA: 9.0
[2]; 0.2500 kg/ha, preemergence
  herbicidal effect rating, MOOVA: 9.0
[3]; 0.0313 kg/ha
  herbicidal effect rating, ORYSAT (rice tolerance): 2.0
[3]; 0.0625 kg/ha
  herbicidal effect rating, ORYSAT (rice tolerance): 2.0
[3]; 0.1250 kg/ha
  herbicidal effect rating, ORYSAT (rice tolerance): 3.0
[3]; 0.2500 kg/ha
  herbicidal effect rating, ORYSAT (rice tolerance): 4.0
[4]; 0.0313 kg/ha, preemergence
  herbicidal effect rating, CYPSE: 0.0
[4]; 0.0625 kg/ha, preemergence
  herbicidal effect rating, CYPSE: 0.0
[4]; 0.1250 kg/ha, preemergence
  herbicidal effect rating, CYPSE: 1.0
[4]; 0.2500 kg/ha, preemergence
  herbicidal effect rating, CYPSE: 4.0
[5]; 0.0313 kg/ha, preemergence
  herbicidal effect rating, CYPIR: 0.0
[5]; 0.0625 kg/ha, preemergence
  herbicidal effect rating, CYPIR: 2.0
[5]; 0.1250 kg/ha, preemergence
  herbicidal effect rating, CYPIR: 6.0
[5]; 0.2500 kg/ha, preemergence
  herbicidal effect rating, CYPIR: 8.0
[6]; 0.0313 kg/ha, preemergence
  herbicidal effect rating, ECHORC: 0.0
[6]; 0.0625 kg/ha, preemergence
  herbicidal effect rating, ECHORC: 0.0
[6]; 0.1250 kg/ha, preemergence
  herbicidal effect rating, ECHORC: 2.0
[6]; 0.2500 kg/ha, preemergence
  herbicidal effect rating, ECHORC: 7.0

## CCOC(=O)c1nsc2cc(F)c(-n3c(=O)cc(C(F)(F)F)n(C)c3=O)cc12 [Example 423, 1,2-Benzisothiazole-3-carboxylic acid, 5-[3,6-dihydro-3-methyl-2,6-dioxo-4-(trifluoromethyl)-1(2H)-pyrimidinyl]-6-fluoro-, ethyl ester]
[1]; [15]
  SAGPY: 9.0
[1]; [16]
  SAGPY: 9.0
[1]; [17]
  SAGPY: 9.0
[1]; [18]
  SAGPY: 9.0
[2]; [15]
  MOOVA: 9.0
[2]; [16]
  MOOVA: 9.0
[2]; [17]
  MOOVA: 9.0
[2]; [18]
  MOOVA: 9.0
[3]; 0.0320 kg/ha
  ORYSAT: 5.0
[3]; 0.0620 kg/ha
  ORYSAT: 6.0
[3]; 0.1250 kg/ha
  ORYSAT: 7.0
[3]; 0.2500 kg/ha
  ORYSAT: 7.0
[4]; [15]
  CYPSE: 9.0
[4]; [16]
  CYPSE: 9.0
[4]; [17]
  CYPSE: 9.0
[4]; [18]
  CYPSE: 9.0
[5]; [15]
  CYPIR: 6.0
[5]; [16]
  CYPIR: 7.0
[5]; [17]
  CYPIR: 9.0
[5]; [18]
  CYPIR: 9.0
[6]; [15]
  ECHORC: 6.0
[6]; [16]
  ECHORC: 9.0
[6]; [17]
  ECHORC: 9.0
[6]; [18]
  ECHORC: 9.0

## CCOCc1nsc2ccc(-n3c(=O)cc(C(F)(F)F)n(C)c3=O)cc12 [Example 195, 3-[3-(Ethoxymethyl)-1,2-benzisothiazol-5-yl]-1-methyl-6-(trifluoromethyl)-2,4(1H,3H)-pyrimidinedione]
[1]; [19]
  herbicidal effect rating, SAGPY: 0.0
[1]; [20]
  herbicidal effect rating, SAGPY: 0.0
[1]; [17]
  herbicidal effect rating, SAGPY: 1.0
[1]; [18]
  herbicidal effect rating, SAGPY: 2.0
[2]; [19]
  herbicidal effect rating, MOOVA: 9.0
[2]; [20]
  herbicidal effect rating, MOOVA: 9.0
[2]; [17]
  herbicidal effect rating, MOOVA: 9.0
[2]; [18]
  herbicidal effect rating, MOOVA: 9.0
[3]; 0.0313 kg/ha
  herbicidal effect rating, ORYSAT (rice tolerance): 6.0
[3]; 0.0625 kg/ha
  herbicidal effect rating, ORYSAT (rice tolerance): 7.0
[3]; 0.1250 kg/ha
  herbicidal effect rating, ORYSAT (rice tolerance): 9.0
[3]; 0.2500 kg/ha
  herbicidal effect rating, ORYSAT (rice tolerance): 9.0
[4]; [19]
  herbicidal effect rating, CYPSE: 0.0
[4]; [20]
  herbicidal effect rating, CYPSE: 0.0
[4]; [17]
  herbicidal effect rating, CYPSE: 2.0
[4]; [18]
  herbicidal effect rating, CYPSE: 7.0
[5]; [19]
  herbicidal effect rating, CYPIR: 0.0
[5]; [20]
  herbicidal effect rating, CYPIR: 2.0
[5]; [17]
  herbicidal effect rating, CYPIR: 4.0
[5]; [18]
  herbicidal effect rating, CYPIR: 9.0
[6]; [19]
  herbicidal effect rating, ECHORC: 2.0
[6]; [20]
  herbicidal effect rating, ECHORC: 3.0
[6]; [17]
  herbicidal effect rating, ECHORC: 6.0
[6]; [18]
  herbicidal effect rating, ECHORC: 9.0

## CCc1nsc2ccc(-n3c(=O)cc(C(F)(F)F)n(C)c3=O)cc12 [Example 119, 3-(3-Ethyl-1,2-benzisothiazol-5-yl)-1-methyl-6-(trifluoromethyl)-2,4(1H,3H)-pyrimidinedione]
[1]; [19]
  herbicidal effect rating, SAGPY: 6.0
[1]; [20]
  herbicidal effect rating, SAGPY: 8.0
[1]; [17]
  herbicidal effect rating, SAGPY: 8.0
[1]; [18]
  herbicidal effect rating, SAGPY: 9.0
[2]; [19]
  herbicidal effect rating, MOOVA: 9.0
[2]; [20]
  herbicidal effect rating, MOOVA: 9.0
[2]; [17]
  herbicidal effect rating, MOOVA: 9.0
[2]; [18]
  herbicidal effect rating, MOOVA: 9.0
[3]; 0.0313 kg/ha
  herbicidal effect rating, ORYSAT (rice tolerance): 7.0
[3]; 0.0625 kg/ha
  herbicidal effect rating, ORYSAT (rice tolerance): 8.0
[3]; 0.1250 kg/ha
  herbicidal effect rating, ORYSAT (rice tolerance): 9.0
[3]; 0.2500 kg/ha
  herbicidal effect rating, ORYSAT (rice tolerance): 9.0
[4]; [19]
  herbicidal effect rating, CYPSE: 2.0
[4]; [20]
  herbicidal effect rating, CYPSE: 4.0
[4]; [17]
  herbicidal effect rating, CYPSE: 8.0
[4]; [18]
  herbicidal effect rating, CYPSE: 9.0
[5]; [19]
  herbicidal effect rating, CYPIR: 9.0
[5]; [20]
  herbicidal effect rating, CYPIR: 9.0
[5]; [17]
  herbicidal effect rating, CYPIR: 9.0
[5]; [18]
  herbicidal effect rating, CYPIR: 9.0
[6]; [19]
  herbicidal effect rating, ECHORC: 4.0
[6]; [20]
  herbicidal effect rating, ECHORC: 9.0
[6]; [17]
  herbicidal effect rating, ECHORC: 9.0
[6]; [18]
  herbicidal effect rating, ECHORC: 9.0
